Data published in ChEMBL document CHEMBL4138146, “A Schmidt rearrangement-mediated synthesis of novel tetrahydro-benzo[1,4]diazepin-5-ones as potential anticancer and antiprotozoal agents” (Eur J Med Chem, 2017).

Key:
Assay type in all cases: functional
[1] = test system: CCRF-CEM; test: Growth inhibition of human CCRF-CEM cells incubated for 48 hrs by sulforhodamine B assay
[2] = test system: MOLT-4; test: Growth inhibition of human MOLT4 cells incubated for 48 hrs by sulforhodamine B assay; details: MOLT-4, 48 h; for CC50: read-out: LC50 (the source's name)
[3] = test system: NCI-H23; test: Growth inhibition of human NCI-H23 cells incubated for 48 hrs by sulforhodamine B assay; details: NCI-H23, 48 h
[4] = test system: SF-295; test: Growth inhibition of human SF295 cells incubated for 48 hrs by sulforhodamine B assay; details: SF-295, 48 h
[5] = test system: HCC 2998; test: Growth inhibition of human HCC2998 cells incubated for 48 hrs by sulforhodamine B assay; details: HCC 2998, 48 h
[6] = test system: MDA-MB-231; test: Growth inhibition of human MDA-MB-231 cells incubated for 48 hrs by sulforhodamine B assay; details: MDA-MB-231, 48 h
[7] = test system: 786-0; test: Growth inhibition of human 786-0 cells incubated for 48 hrs by sulforhodamine B assay; details: 786-0, 48 h
[8] = test system: HL-60(TB); test: Growth inhibition of human HL-60(TB) cells incubated for 48 hrs by sulforhodamine B assay; details: HL-60, 48 h
[9] = test system: CAKI-1; test: Growth inhibition of human Caki1 cells incubated for 48 hrs by sulforhodamine B assay; details: CAKI-1, 48 h; for CC50: read-out: LC50 (the source's name)
[10] = test system: TK-10; test: Growth inhibition of human TK10 cells incubated for 48 hrs by sulforhodamine B assay; details: TK-10, 48 h
[11] = test system: OVCAR-5; test: Growth inhibition of human OVCAR5 cells incubated for 48 hrs by sulforhodamine B assay; details: OVCAR-5, 48 h; for CC50: read-out: LC50 (the source's name)
[12] = test system: OVCAR-4; test: Growth inhibition of human OVCAR4 cells incubated for 48 hrs by sulforhodamine B assay; details: OVCAR-4, 48 h
[13] = test system: SW-620; test: Growth inhibition of human SW620 cells incubated for 48 hrs by sulforhodamine B assay; details: SW-620, 48 h
[14] = test system: NCI-H226; test: Growth inhibition of human NCI-H226 cells incubated for 48 hrs by sulforhodamine B assay; details: NCI-H226, 48 h; for CC50: read-out: LC50 (the source's name)
[15] = test system: KM12; test: Growth inhibition of human KM12 cells incubated for 48 hrs by sulforhodamine B assay; details: KM12, 48 h
[16] = test system: BT-549; test: Growth inhibition of human BT549 cells incubated for 48 hrs by sulforhodamine B assay; details: BT-549, 48 h
[17] = test system: HCT-116; test: Growth inhibition of human HCT116 cells incubated for 48 hrs by sulforhodamine B assay; details: HCT-116, 48 h
[18] = test system: A498; test: Growth inhibition of human A498 cells incubated for 48 hrs by sulforhodamine B assay; details: A498, 48 h; for CC50: read-out: LC50 (the source's name)
[19] = test system: DU-145; test: Growth inhibition of human DU145 cells incubated for 48 hrs by sulforhodamine B assay; details: DU-145, 48 h; for CC50: read-out: LC50 (the source's name)
[20] = test system: A549; test: Growth inhibition of human A549/ATCC cells incubated for 48 hrs by sulforhodamine B assay; details: A549, 48 h
[21] = test system: K562; test: Growth inhibition of human K562 cells incubated for 48 hrs by sulforhodamine B assay; details: K562, 48 h
[22] = test system: NCI-H322M; test: Growth inhibition of human NCI-H322M cells incubated for 48 hrs by sulforhodamine B assay
[23] = test system: ACHN; test: Growth inhibition of human ACHN cells incubated for 48 hrs by sulforhodamine B assay; details: for CC50: read-out: LC50 (the source's name)
[24] = test system: SN12C; test: Growth inhibition of human SN12C cells incubated for 48 hrs by sulforhodamine B assay
[25] = test system: SK-MEL-5; test: Growth inhibition of human SK-MEL-5 cells incubated for 48 hrs by sulforhodamine B assay; details: SK-MEL-5, 48 h; for CC50: read-out: LC50 (the source's name)
[26] = test system: MDA-MB-468; test: Growth inhibition of human MDA-MB-468 cells incubated for 48 hrs by sulforhodamine B assay; details: MDA-MB-468, 48 h
[27] = test system: UACC-257; test: Growth inhibition of human UACC257 cells incubated for 48 hrs by sulforhodamine B assay; details: UACC-257, 48 h; for CC50: read-out: LC50 (the source's name)
[28] = test system: EKVX; test: Growth inhibition of human EKVX cells incubated for 48 hrs by sulforhodamine B assay
[29] = test system: PC-3; test: Growth inhibition of human PC3 cells incubated for 48 hrs by sulforhodamine B assay; details: PC-3, 48 h
[30] = test system: SK-MEL-28; test: Growth inhibition of human SK-MEL-28 cells incubated for 48 hrs by sulforhodamine B assay; details: SK-MEL-28, 48 h; for CC50: read-out: LC50 (the source's name)
[31] = test system: OVCAR-3; test: Growth inhibition of human OVCAR3 cells incubated for 48 hrs by sulforhodamine B assay; details: OVCAR-3, 48 h
[32] = test system: HOP-62; test: Growth inhibition of human HOP62 cells incubated for 48 hrs by sulforhodamine B assay; details: HOP-62, 48 h
[33] = test system: NCI-H460; test: Growth inhibition of human NCI-H460 cells incubated for 48 hrs by sulforhodamine B assay; details: NCI-H460, 48 h
[34] = test system: COLO 205; test: Growth inhibition of human COLO205 cells incubated for 48 hrs by sulforhodamine B assay; details: COLO 205, 48 h
[35] = test system: SF-539; test: Growth inhibition of human SF539 cells incubated for 48 hrs by sulforhodamine B assay; details: SF-539, 48 h
[36] = test system: Hs-578T; test: Growth inhibition of human Hs 578T cells incubated for 48 hrs by sulforhodamine B assay
[37] = test system: NCI-H522; test: Growth inhibition of human NCI-H522 cells incubated for 48 hrs by sulforhodamine B assay; details: NCI-H522, 48 h; for CC50: read-out: LC50 (the source's name)
[38] = read-out: LC50 (the source's name)

Compound: COc1cccc2c1C(=O)c1c(O)c3c(c(O)c1C2=O)C[C@@](O)(C(=O)CO)C[C@@H]3O[C@H]1C[C@H](N)[C@H](O)[C@H](C)O1 [DOXORUBICIN]
- GI50 [1]: 0.08 µM
- GI50 [2]: 0.03 µM
- CC50 [2]: 100 µM
- GI50 [3]: 0.15 µM
- GI50 [4]: 0.1 µM
- GI50 [5]: 0.26 µM
- GI50 [6]: 0.51 µM
- GI50 [7]: 0.13 µM
- GI50 [8]: 0.12 µM
- GI50 [9]: 0.95 µM
- CC50 [9]: 100 µM
- GI50 [10]: 0.38 µM
- GI50 [11]: 0.41 µM
- CC50 [11]: 100 µM
- GI50 [12]: 0.37 µM
- GI50 [13]: 0.09 µM
- GI50 [14]: 0.05 µM
- CC50 [14]: 6.4 µM
- GI50 [15]: 0.27 µM
- GI50 [16]: 0.23 µM
- GI50 [17]: 0.08 µM
- GI50 [18]: 0.1 µM
- CC50 [18]: 1.9 µM
- GI50 [19]: 0.11 µM
- CC50 [19]: 100 µM
- GI50 [20]: 0.06 µM
- GI50 [21]: 0.19 µM
- GI50 [22]: 0.54 µM
- GI50 [23]: 0.08 µM
- CC50 [23]: 100 µM
- GI50 [24]: 0.07 µM
- GI50 [25]: 0.14 µM
- CC50 [25]: 8.15 µM
- GI50 [26]: 0.05 µM
- GI50 [27]: 0.12 µM
- CC50 [27]: 0.74 µM
- GI50 [28]: 0.41 µM
- GI50 [29]: 0.32 µM
- GI50 [30]: 0.08 µM
- CC50 [30]: 0.49 µM
- GI50 [31]: 0.39 µM
- GI50 [32]: 0.07 µM
- GI50 [33]: 0.02 µM
- GI50 [34]: 0.18 µM
- GI50 [35]: 0.12 µM
- GI50 [36]: 0.33 µM
- GI50 [37]: 0.03 µM
- CC50 [37]: 2.8 µM

Compound: CCCCOc1nc2ccccc2cc1C1CNC(=O)c2ccccc2N1 (centres undefined)
- GI50 [1]: 2.95 µM
- LC50 (concentration killing 50% of cells) [1]: > 100 µM
- TGI [1]: 24.9 µM
- GI50 [2]: 3.05 µM
- TGI [2]: 13.6 µM
- CC50 [2]: > 100 µM
- GI50 [3]: 5.16 µM
- TGI [3]: 36.8 µM
- CC50 [3, 38]: > 100 µM
- GI50 [4]: 1.4 µM
- TGI [4]: 9.82 µM
- CC50 [4, 38]: 52.4 µM
- GI50 [5]: 3.58 µM
- TGI [5]: 26.7 µM
- CC50 [5, 38]: > 100 µM
- GI50 [6]: 3.83 µM
- TGI [6]: 20.9 µM
- CC50 [6, 38]: 90.3 µM
- GI50 [7]: 2.84 µM
- TGI [7]: 10.4 µM
- CC50 [7, 38]: 4.65 µM
- GI50 [8]: 0.047 µM
- LC50 [8]: 65.4 µM
- TGI [8]: 0.384 µM
- GI50 [9]: 2.83 µM
- TGI [9]: 34.4 µM
- CC50 [9]: > 100 µM
- GI50 [10]: 4.93 µM
- TGI [10]: 21.6 µM
- CC50 [10, 38]: 73.8 µM
- GI50 [11]: 6.42 µM
- TGI [11]: 41 µM
- CC50 [11]: > 100 µM
- GI50 [12]: 5.38 µM
- TGI [12]: 31.8 µM
- CC50 [12, 38]: > 100 µM
- GI50 [13]: 2.19 µM
- TGI [13]: 27.1 µM
- CC50 [13, 38]: > 100 µM
- GI50 [14]: 3.13 µM
- TGI [14]: 14.9 µM
- CC50 [14]: > 100 µM
- GI50 [15]: 3.3 µM
- TGI [15]: 80.6 µM
- CC50 [15, 38]: > 100 µM
- GI50 [16]: 5.22 µM
- TGI [16]: 38.8 µM
- CC50 [16, 38]: > 100 µM
- GI50 [17]: 1.84 µM
- TGI [17]: 6.26 µM
- CC50 [17, 38]: 44.7 µM
- GI50 [18]: 0.39 µM
- TGI [18]: 4.7 µM
- CC50 [18]: > 100 µM
- GI50 [19]: 3.16 µM
- TGI [19]: 12.9 µM
- CC50 [19]: > 100 µM
- GI50 [20]: 3.64 µM
- LC50 [20]: 53 µM
- TGI [20]: 14.5 µM
- GI50 [21]: 0.84 µM
- LC50 [21]: > 100 µM
- TGI [21]: 16.4 µM
- GI50 [22]: 4.5 µM
- TGI [22]: 45.5 µM
- CC50 [22, 38]: > 100 µM
- GI50 [23]: 3.92 µM
- TGI [23]: 17.1 µM
- CC50 [23]: 5.95 µM
- GI50 [24]: 3.34 µM
- TGI [24]: 18.2 µM
- CC50 [24, 38]: 90.6 µM
- GI50 [25]: 2.34 µM
- TGI [25]: 20 µM
- CC50 [25]: > 100 µM
- GI50 [26]: 1.61 µM
- TGI [26]: 7.34 µM
- CC50 [26, 38]: > 100 µM
- GI50 [27]: 8.16 µM
- TGI [27]: > 100 µM
- CC50 [27]: > 100 µM
- GI50 [28]: 4.76 µM
- TGI [28]: 82.8 µM
- CC50 [28, 38]: > 100 µM
- GI50 [29]: 3.06 µM
- TGI [29]: 13.4 µM
- CC50 [29, 38]: 66.9 µM
- GI50 [30]: 5.89 µM
- TGI [30]: 27.3 µM
- CC50 [30]: 86.1 µM
- GI50 [31]: 1.31 µM
- TGI [31]: 3.53 µM
- CC50 [31, 38]: 9.4 µM
- GI50 [32]: 2.99 µM
- LC50 [32]: 76.7 µM
- TGI [32]: 17.4 µM
- GI50 [33]: 3.11 µM
- LC50 (concentration killing 50% of cells) [33]: 51.1 µM
- TGI [33]: 11.6 µM
- GI50 [34]: 2.19 µM
- TGI [34]: 4.95 µM
- CC50 [34, 38]: 23 µM
- GI50 [35]: 2.29 µM
- TGI [35]: 7.47 µM
- CC50 [35, 38]: 44.9 µM
- GI50 [36]: 3.21 µM
- TGI [36]: 33.8 µM
- CC50 [36, 38]: > 100 µM
- GI50 [37]: 2.39 µM
- TGI [37]: 25.8 µM
- CC50 [37]: > 100 µM
